Measured values published in US8598203B2 (Teva Pharmaceutical Industries, Ltd., priority 2009, dated 2013).

What was measured:
[1] = tested on: subjects with moderate to severe Crohn's disease (CDAI score of 220-450); experiment: Phase IIa clinical trial of oral laquinimod in active moderate to severe Crohn's disease; type: in vivo, human; conditions: for dependence on steroids: moderate to severe Crohn's disease; for C-Reactive Protein level / clinical remission / clinical response / disease progression and/or disease complication / fecal calprotein level / number of open draining fistulas / symptoms of Crohn's disease: moderate to severe Crohn's disease (CDAI 220-450)
Description: Overall up to ˜180 Crohn's disease patients are enrolled. […] The capsules were prepared using a blend proportional to the 0.6 mg capsules described in PCT International Application No. PCT/US2007/013721 (WO 2007/146248). The capsules were prepared according to the method described in PCT International Application No. PCT/US2007/013721 (WO 2007/146248), which is hereby incorporated by reference into this application. A loading dose regimen of double the maintenance/intended dose is given during the first two days of study drug treatment. Thereafter, starting on day 3, the daily maintenance/intended dose is administered. Subjects are required to maintain CDAI diary cards for each day of the screening period and, if randomized, on each day of the treatment and follow-up period. The scores obtained from the seven consecutive diaries completed prior to the baseline visit and to each of weeks 1, 2, 4, 6, 8 and 12 contribute to a total CDAI score at each of the time points. Moderate to severe Crohn's disease (CD) subjects as determined by a Crohn's Disease Activity Index (CDAI) score of 220-450 (inclusive). […] Each dose is studied sequentially in a distinct cohort. Scheduled in-clinic visits are conducted at screening, baseline and at weeks 1, 2, 4, 6 and 8. […] Subjects who early-discontinues study drug prior to visit week 8 go to follow-up termination visit within 4 weeks (28 days) of study drug discontinuation. A loading dose regimen of the study drug is given during the first two days of treatment (day 1/baseline and thereafter). The first loading dose of the study is administered at the site. The loading dose is double the intended dose for the first two days and is administered twice daily (BID) with 12 hour interval between dosing. Thereafter, starting on day 3, the dosing regimen consists of the intended dose once daily (QD) (see Table 1): • 1. Day 1 (Baseline): loading dose of the drug (intended dose at 0 hour, at the site and intended dose at 12 hours). Total dose is twice the intended dose. • 2. Day 2: loading dose of the study drug (intended dose at 0 hour and intended dose at 12 hours). Total dose is twice the intended dose. • 3. Day 3: Intended/maintenance dose of the study drug. […] Proportion of subjects in clinical remission (total CDAI score <150) at weeks 4, 6, 8 and 12. • 2. Proportion of subjects who respond to treatment (decrease from baseline of at least 100 points in CDAI score ore remission) at week 4, 6, 8 and 12. • 3. Time to remission. • 4. Time to response. • 5. C-Reactive Protein (CRP) change from baseline at weeks 2, 4, 6, 8 and 12. • 6. Fecal calprotectin change from baseline to weeks 2, 4, 6, 8 and 12. • 7. Proportion of subjects with a decrease from baseline of at least 50% in the number of open draining fistulas. Safety/Tolerability • 1. Adverse events (AEs). • 2. Clinical laboratory values. • 3. Vital signs. • 4. ECG. • 5. Proportion of subjects who prematurely discontinue treatment. • 6. Proportion of subjects who prematurely discontinue treatment due to AEs. • 7. Time to premature treatment discontinuation. • 8. Time to premature treatment discontinuation due to AEs. Determination of the Highest Tolerable Dose

[2] = previous pharmacokinetic studies of laquinimod (time to steady state, oral bioavailability); type: in vivo; conditions: with loading dose regimen (double the intended dose for the first two days)
Excerpt: In order to decrease thee time to steady state and potentially decrease time to response, a loading dose regimen described below is used to allow steady state levels to be reached in approximately 6-7 days.

[3] = background statement; cited from earlier work

CCN(C(=O)c1c(O)c2c(Cl)cccc2n(C)c1=O)c1ccccc1 [laquinimod]
dependence on steroids ([1]; 0.5 mg/day oral): lowers | C-Reactive Protein level ([1]; 0.5 mg/day oral): lowers | clinical remission ([1]; 0.5 mg/day oral): induces and/or maintains | clinical response ([1]; 0.5 mg/day oral): induces | disease progression and/or disease complication ([1]; 0.5 mg/day oral): inhibits | fecal calprotein level ([1]; 0.5 mg/day oral): lowers | number of open draining fistulas ([1]; 0.5 mg/day oral): reduces | symptoms of Crohn's disease ([1]; 0.5 mg/day oral): reduces | dependence on steroids ([1]; 1.0 mg/day oral): lowers | C-Reactive Protein level ([1]; 1.0 mg/day oral): lowers | clinical remission ([1]; 1.0 mg/day oral): induces and/or maintains | clinical response ([1]; 1.0 mg/day oral): induces | disease progression and/or disease complication ([1]; 1.0 mg/day oral): inhibits | fecal calprotein level ([1]; 1.0 mg/day oral): lowers | number of open draining fistulas ([1]; 1.0 mg/day oral): reduces | symptoms of Crohn's disease ([1]; 1.0 mg/day oral): reduces | dependence on steroids ([1]; 1.5 mg/day oral): lowers | C-Reactive Protein level ([1]; 1.5 mg/day oral): lowers | clinical remission ([1]; 1.5 mg/day oral): induces and/or maintains | clinical response ([1]; 1.5 mg/day oral): induces | disease progression and/or disease complication ([1]; 1.5 mg/day oral): inhibits | fecal calprotein level ([1]; 1.5 mg/day oral): lowers | number of open draining fistulas ([1]; 1.5 mg/day oral): reduces | symptoms of Crohn's disease ([1]; 1.5 mg/day oral): reduces | dependence on steroids ([1]; 2.0 mg/day oral): lowers | C-Reactive Protein level ([1]; 2.0 mg/day oral): lowers | clinical remission ([1]; 2.0 mg/day oral): induces and/or maintains | clinical response ([1]; 2.0 mg/day oral): induces | disease progression and/or disease complication ([1]; 2.0 mg/day oral): inhibits | fecal calprotein level ([1]; 2.0 mg/day oral): lowers | number of open draining fistulas ([1]; 2.0 mg/day oral): reduces | symptoms of Crohn's disease ([1]; 2.0 mg/day oral): reduces | time to reach steady state levels [2]: 6 to 7 days | oral bioavailability [3]: high oral bioavailability
